pIC50: −log10 of the molar value. Each block holds one compound with its values, some of them ahead of it.
Key:
[1] = system: Ptc-null cells (gli-1 mRNA, Patched pathway); assay: Ptc-null assay: gli-1 mRNA by RT-PCR and quantitative real-time PCR; format: cell-based, mouse; conditions: 3 days; for expression of gli-1 mRNA (RT-PCR, agarose gel): vs vehicle
Procedure: Ptc-null cells were cultured for 3 days in the presence of vehicle; jervine, a known Patched pathway antagonist (i) used here as a positive control; or 1 μM of compound D. Total ribonucleic acid (RNA) was isolated from the cells and used for reverse transcriptase-polymerase chain reaction (RT-PCR). […] The gli-1 and actin mRNA samples were then loaded on 1.5% agarose gel and were detected by staining with ethidium bromide. The same samples were analyzed by the quantitative real-time polymerase chain reaction method to quantify the levels of gli-1 MRNA.

[2] = system: Patched pathway / ultraviolet radiation-induced BCC tumors; assay: Adult BCC mouse skin punch assay (UV-irradiated Ptc heterozygous transgenic mice); format: cell-based
Procedure: Ptc heterozygous transgenic mice were irradiated 3 times weekly for 6 months, during which time many small, and often microscopic, BCC tumors developed. Four-mm diameter skin punch explants, presumably containing BCC structures, were cultured for 6 days in the presence of vehicle, the positive control […]), or 5 μM D. At the end of the experiment, the explants were analyzed by X-gal staining to detect the level of Patched pathway activity, by histology to determine the effect of treatment on the morphology of ultraviolet radiation-induced BCCs, and by quantifying the level of gli-1 mRNA expression to characterize the extent of pathway inhibition.

[3] = system: Hedgehog pathway; assay: Gli-Luc assay (Hedgehog-responsive Luciferase reporter), 10T1/2(s12) cells with OCT-SHH; format: cell-based; conditions: OCT-SHH 0.3 μg/ml
Procedure: Compounds to be tested are dissolved in DMSO to a concentration of 10 MM, and stored at −20° C. To activate the Hedgehog pathway in the assay cells, an octylated (lipid-modified) form of the N-terminal fragment of the Sonic Hedgehog protein (OCT-SHH) is used. This N-terminal SHH fragment is produced bacterially.
Compounds may be tested in the “Gli-Luc” assay below, using the cell line 10T(s12), wherein the cells contain a Hedgehog-responsive reporter construct utilizing Luciferase as the reporter gene. In this way, Hedgehog pathway signaling activity can be measured via the Gli-Luc response.
10t1/2(s12) cells are plated in a 96-well micro-titer plate (MTP) at 20,000 cells/well in full medium [DMEM with 10% FBS]. Then plates are placed in the incubator for incubation overnight (O/N), at 37° C. and 5% CO2. After 24 h, the medium is replaced with Luciferase-assay medium (DMEM with 0.5% FBS). Compounds are thawed and diluted in assay medium at 3:1000 (about 300-fold) resulting in a starting concentration of about 30 μM.
Subsequently, 150 μl of each 30 μM sample is added to the first wells (in triplicate). The MTP samples are then diluted at 3-fold dilutions to a total of seven wells, ultimately resulting in a regiment of seven dilutions in triplicate, for each compound. Next, the protein ligand OCT-SHH is diluted in Luciferase-assay medium and added to each well at a final concentration of 0.3 μg/ml. Plates are then returned to the incubator for further incubation O/N, at 37° C. and 5% CO2. After about 24 h, plates are removed from the incubator and the medium is aspirated/discarded. Wells are washed once with assay buffer [PBS +1 mM Mg^2+and 1 mM Ca^2+]. Then 50 μl of assay buffer is added to each well. The Luciferase assay reagent is prepared as described by the vendor (LucLite kit from Packard), and 50 μl is added to each well. Plates are incubated at room temperature (RT) for about 30 minutes after which the signals are read, again at RT, on a Topcount (Packard).

[4] = system: Patched pathway (X-gal, gli-1 mRNA, BCC-like structures); assay: Embryonic mouse skin punch assay: short-term treatment of pre-existing BCC-like structures; format: cell-based
Procedure: Day 17.5 embryonic skin punches from transgenic Patched pathway reporter mice were cultured in the presence of Shh protein for 7 days. The Shh protein was removed at the end of the 7 days. The skin punches were then exposed to vehicle or 1 or 5 μM D for 5 hours on days 7 and 9. After each exposure to vehicle or D, the vehicle or D was washed off and the skin punches were cultured again in the presence of Shh protein. Cultures were analyzed by X-gal staining after 10 days in vitro to assess the activity of the Patched pathway.

[5] = system: Patched pathway (ptc-lacZ reporter, Shh-induced BCC-like structures); assay: Embryonic mouse skin punch assay: prolonged exposure to D; format: cell-based; conditions: Shh-treated skin punches, 6 days
Source text: A novel cell culture assay was established to determine the effects of D on activation of the Patched pathway in skin. In this system, activation of the Patched pathway results in increased expression of the ptc gene.
To monitor the activity of the Patched pathway in embryonic skin, we cultured pieces of skin from transgenic Patched pathway reporter mice. These mice were genetically engineered to harbor a foreign gene (lacZ). The lacZ gene encodes a bacterial beta-galactosidase. The gene was inserted in the ptc locus but allowed for normal ptc function. Ptc activation in response to Shh-induced Patched pathway activation can then be monitored by the production of the lacZ gene product, beta-galactosidase, which is detectable by the enzymatic conversion of the substrate X-gal into a blue-colored reaction product.
Day 17.5 embryonic skin was explanted as 2 mm circular punches from these transgenic reporter mice and cultured for 5 to 7 days in the presence of Shh protein (FIG. 34). […] To test the effect of D, skin punches were cultured for 6 days in the presence of both Shh protein and D (FIG. 35).

[6] = system: GLI-1 expression in human BCC; assay: Human BCC explant culture, quantitative in situ hybridization; format: cell-based; conditions: 10 μM D, 3 days, vs vehicle
Procedure: Specimens obtained from surgical procedures (such as Mohs surgery or curettage) were cultured on fresh, living, day 17 embryonic mouse dermis from which all epidermal cells have been removed by digestion using dispase. Since dispase treatment digests basement membrane components, Matrigel, a commercially available basement membrane preparation, was applied between the dermis and BCC. Cultures were assembled on top of a plastic grid and incubated for 3 days (with or without D at a concentration of 10 μM) in a medium suitable for the long-term culture of human skin. After culture, the samples were processed for routine histology and subjected to quantitative in situ hybridization. Briefly, 7μm sections of paraformaldehyde-fixed, paraffin-embedded tissue containing large basal cell islands were cleared, re-hydrated, digested with proteinase K, acetylated and hybridized with [^33P]- labeled RNA probes overnight. After high stringency post-hybridization washes, slides were exposed to a PhosphorImager screen in the dark at room temperature for 4-7 days. After developing, the [^33P]-signal was scanned using a Storm Scanner (Molecular Dynamics). Individual basal cell islands were selected and the signal quantified and expressed in average counts/pixel using ImageQuant 1.0 software.

[7] = system: Patched pathway (ptc-lacZ reporter); assay: Embryonic mouse skin punch assay: short-term pretreatment with D; format: cell-based; conditions: pretreated with D at 10, 20 and 50 μM for 5 hours, then Shh 6 days
Procedure: Transgenic mouse-derived skin punches were treated with vehicle or D for 5 hours in the absence of Shh. After the pretreatment, the vehicle or D was removed. The skin punches were washed twice and then cultured in the presence of Shh for 6 days. At the end of the experiment, the skin punches were fixed and stained with X-gal to determine Patched pathway activity.

[8] = system: Shh-induced BCC-like structures; assay: Embryonic mouse skin punch assay: long-term treatment of pre-existing BCC-like structures; format: cell-based
Procedure: Day 17.5 embryonic skin punches from transgenic Patched pathway reporter mice were cultured in the presence of Shh protein for 7 days to allow for the development of BCC-like structures. The Shh protein was removed at the end of the 7 days. The cultures were then exposed to Shh protein plus either vehicle or D for 3 days. The cultures were analyzed histologically after 10 days to assess the formation of BCC-like structures that are indicative of activation of the Patched pathway.
One possible mechanism for D-induced regression of BCC-like structures may be apoptosis of the activated cells. To investigate this possibility, parallel explants were exposed to 5 μM D for 2 days and were then stained by the terminal deoxynucleotidyltransferase mediated d-UTP nick end-labeling (TUNEL) method, which is used to detect apoptotic nuclei.

[9] = short-term treatment, 5 hours on days 7 and 9

Compound: CC1=C2C(=O)[C@H]3[C@@H](CC=C4C[C@@H](O)CC[C@@]43C)[C@@H]2CC[C@]12O[C@@H]1C[C@H](C)CN[C@H]1[C@H]2C [jervine, reference compound]
gli-1 mRNA levels (quantitative real-time PCR) ([1]; 5 μM jervine): downregulated
expression of gli-1 mRNA (RT-PCR, agarose gel) ([1]; 5 μM jervine): significantly decreased
number and size of BCC structures (X-gal staining) ([2]; jervine positive control, 6 days, vs vehicle): greatly decreased

Compound: COc1cccc(CN(C(=O)CC(C)C)C2CC(C(=O)N3CCNCC3)N(Cc3ccc(OC)c(OC)c3OC)C2)c1 (stereo not shown) [Compound I]
pIC50 [3]: > 5.00

Compound: C=CCOC(=O)N(Cc1cccc(OC)c1)[C@H]1C[C@@H](C(=O)N2CCNCC2)N(Cc2ccc3c(c2)OCO3)C1 [M″]
pIC50 [3]: > 6.00

Compound: COC(=O)c1ccsc1CN1CC(N(Cc2cccc(OC)c2)C(=O)CC(C)(C)C)CC1C(=O)N1CCNCC1 (stereo not shown) [B″]
pIC50 [3]: > 6.00

Compound: O=C(C1CC(N(CC2CCCCC2)CC2CC2)CN1Cc1ccc(F)cc1)N1CCCNCC1 (stereo not shown) [C′]
pIC50 [3]: > 5.00

Compound: NCCNC(=O)C1CC(N(CCc2ccccc2)C(=O)C2CCCCC2)CN1CC1CCCCC1 (stereo not shown) [B′]
pIC50 [3]: > 5.00

Compound: Cc1ccc(CN2CC(N(Cc3cccs3)C(=O)c3cccs3)CC2C(=O)N2CCNCC2)s1 (stereo not shown) [D′]
pIC50 [3]: > 5.00

Compound: COc1cccc(CN2CC(N(Cc3cccc(OC)c3)C(=O)c3cccs3)CC2C(=O)N2CCNCC2)c1 (stereo not shown) [Q]
pIC50 [3]: > 6.00

Compound: NCCNC(=O)C1CC(N(CCc2ccccc2)Cc2ccc([N+](=O)[O-])cc2)CN1CC1CCCCC1 (stereo not shown) [F′]
pIC50 [3]: > 5.00

The next lines start with results.

pIC50 [3]: > 6.00
Compound: COc1cccc(CN(C(=O)C2CCCC2)C2CC(C(=O)N3CCNCC3)N(Cc3ccc(OC)c(OC)c3OC)C2)c1 (stereo not shown) [V′]

pIC50 [3]: > 7.00
Compound: COc1cccc(CN(C(=O)C(C)C)C2CC(C(=O)N3CCNCC3)N(Cc3ccc4c(c3)OCO4)C2)c1 (stereo not shown) [P]

pIC50 [3]: > 6.00
Compound: COc1cccc(CN(C(=O)C2CCC2)C2CC(C(=O)N3CCNCC3)N(Cc3ccc4c(c3)OCCO4)C2)c1 (stereo not shown) [U′]

pIC50 [3]: > 5.00
Compound: COc1cccc(CN(C(=O)C2CC2)C2CC(C(=O)N3CCNCC3)N(CC(C)C)C2)c1 (stereo not shown) [A′]

pIC50 [3]: > 6.00
Compound: COc1cccc(CN2CC(N(Cc3cccc(OC)c3)C(=O)C3CC3)CC2C(=O)N2CCNCC2)c1 (stereo not shown) [C]

pIC50 [3]: > 6.00
Compound: Cc1ccc(CN2CC(N(Cc3cccs3)C(=O)C3CC3)CC2C(=O)N2CCNCC2)s1 (stereo not shown) [U]

Patched pathway activity (lacZ reporter enzyme activity) ([5]; 0.01 to 1 μM D): dose-dependent decrease
pIC50 [3]: > 6.00
Compound: COc1cccc(CN(C(=O)CC(C)(C)C)C2CC(C(=O)N3CCNCC3)N(Cc3ccc4c(c3)OCO4)C2)c1 (stereo not shown) [Compound D]
regression of existing Shh-induced BCC-like structures ([4]; 1 and 5 μM D for 5 hours on days 7 and 9): caused the regression
amount of X-gal staining ([4]; 1 or 5 μM D for 5 hours on days 7 and 9): reduced
GAPDH mRNA levels (general cytotoxicity) [4, 9]: relatively constant
gli-1 transcription (gli-1 mRNA levels) [4, 9]: completely downregulated
X-gal staining ([5]; 0.2 μM D, vs Shh alone): decreased
formation of BCC-like structures ([5]; histology): completely blocked
integrity of normal skin cells ([5]; histology): without affecting the integrity of normal skin cells
level of GLI-1 expression (quantitative in situ hybridization) [6]: greatly reduced
inhibition of Shh protein-induced upregulation of the Patched pathway (X-gal staining) [7]: complete inhibition
gli-1 mRNA levels (quantitative real-time PCR) ([1]; 1 μM D): downregulated
expression of gli-1 mRNA (RT-PCR, agarose gel) ([1]; 1 μM D): significantly decreased
number and size of established BCC structures (X-gal staining) ([2]; 5 μM D, 6 days, vs vehicle): decreased
level of gli-1 mRNA ([2]; D 1 and 5 μM, vs vehicle): significantly inhibited
regression of ultraviolet radiation-induced BCC tumors (histology) ([2]; D, 6 days, vs vehicle): induced the regression
levels of housekeeping GAPDH (non-specific cytotoxicity) ([2]; treated vs vehicle): no significant difference
number of apoptotic nuclei within BCC-like structures (TUNEL) ([8]; 5 μM D, 2 days, vs vehicle): significantly higher
general cytotoxic effects on skin cells (histology) ([8]; D 1 or 5 μM, 3 days): did not appear to have general cytotoxic effects
size and number of Shh-induced BCC-like structures ([8]; pre-existing structures, D 1 or 5 μM, 3 days, vs vehicle): significantly reduced

Source: US20020165221A1, “Mediators of hedgehog signaling pathways, compositions and uses related thereto” (priority 2000, published 2002)
